Values of other authors as cited in patent US20230000758A1, “METHOD FOR PREVENTING SKIN AGING COMPRISING KOREAN MINT EXTRACT” (COSMAX NBT, INC., priority 2021, published 2023).

Test system: catalase
Details: lipopolysaccharide-stimulated mouse lung tissues

COc1ccc(-c2cc(=O)c3c(O)cc(O[C@@H]4O[C@H](CO[C@@H]5O[C@@H](C)[C@H](O)[C@@H](O)[C@H]5O)[C@@H](O)[C@H](O)[C@H]4O)cc3o2)cc1 [linarin]
expression of the anti-oxidant enzyme catalase: markedly increased
